Data set [1] deals with mouse BMSCs (mBMSCs). Description: ALP activity in mouse bone marrow stromal cells. It is filed as cell-based. Particulars: 1 nM, seven days post-treatment.
Data set [2] concerns β-catenin nuclear translocation in osteoblasts (RCO). Description: Immunofluorescence of β-catenin nuclear translocation in RCO. Particulars: 10 nM. It is filed as cell-based, rat. On the procedure: RCOs were grown on Lab-Tek Chamber Slides (Nunc, Penfield, NY, USA) to 40–50% confluence for 24 h. After treatment with MTZ at different time points, cells were fixed with 4% formaldehyde, followed by permeabilization with 0.1% Triton™ X-100 for 15 min, blocked with 2% goat serum for 2 h, and labeled with primary antibody against β-catenin (Cell Signaling Technology, Danvers, MA, USA, catalog number 9562S) (1:100) overnight at 4 °C in a moist chamber. Alexa Fluor® 594 (Abcam, Cambridge, UK, catalog number ab150080) was used as a secondary antibody (1:200 dilution) for 2 h at room temperature. […]

In data set [3] the test system is rat BMSCs (rBMSCs). Nature of the data set: Nodule mineralization (Alizarin Red S) in rBMSCs. The class given is cell-based. The note with it: 21 days post-treatment, differentiation medium. On the procedure:
Rat and mouse BMSCs were seeded at a density of 1 × 10^6 cells/well in a 6-well plate, vehicle or MTZ (1 nM) treatment was conducted, and the media were changed every alternate day for 21 days using a differentiation medium [10% FBS, β-glycerophosphate (10 mM), ascorbic acid (50 µg/mL), and dexamethasone (100 nM) in α-MEM].
(§1) Cells were fixed with 10% formalin for 15 min and stained with Alizarin Red for 1 h after 21 days of culture. Moreover, 10% cetylpyridinium chloride (Sigma #C0732) was used to quantify mineralized nodules at a 595 nm wavelength.

Data set [4] can be described thus: In vitro MTZ release in PBS and release kinetics models. The arrangement: Hixson–Crowell kHC / Zero-order K0 / First-order K1 / Higuchi kH: unit not given here. The class given is physicochemical. The note with it: in PBS. On the procedure:
To evaluate the release kinetics profile of MTZ, a formulation containing 10 mg equivalent of MTZ was injected into 200 mL of the PBS medium (37 ± 0.5 °C) using a 20-gauge needle. The formulation immediately turned into a gel upon contact with the dissolution medium. The dissolution vials were placed on a reciprocating bath-shaker and left for continuous shaking throughout the dissolution study. A total of 2 mL of aliquots were withdrawn and replaced with an equal volume of fresh PBS to maintain the sink condition. The dissolution study was conducted for a duration of 24 h. The samples were filtered through a syringe filter (0.22 μm). The MTZ concentrations were analyzed spectrophotometrically (294 nm) after appropriate dilution, with PBS as a blank for background correction. The measured concentrations were presented as the mean ± standard deviation (SD).
To understand the drug release kinetics, data obtained from the release study were fitted into various kinetics models: zero-order, first-order, Higuchi, Korsmeyer–Peppas, and Hixson–Crowell. The DD solver Excel add-in program was utilized to compare and identify the mechanism of drug release.

The subject of data set [5] is C3H10T1/2 cells. Description: Nodule mineralization (Alizarin Red S) in C3H10T1/2 cells. The class given is cell-based, murine. Particulars: 21 days, differentiation medium. As to the method: In a different set of experiments, 3 × 10^6 C3H10T1/2 cells were seeded in a 60 mm culture dish. Then, 24 h post-seeding, the vehicle or MTZ treatment was conducted, and the media were changed every alternate day for 21 days using a differentiation medium.
as §1

In data set [6] the test system is rat BMSCs (rBMSCs). Nature of the data set: ALP activity in rat bone marrow stromal cells. The class given is cell-based. Particulars: 1 nM, seven days post-treatment.
In data set [7] the test system is rat BMSCs (rBMSCs). Description: BrdU proliferation assay in rBMSCs. It is filed as cell-based. The note with it: 1 nM. As to the method:
(§2) Rat and mouse bone marrow stromal cells (BMSCs) were seeded at a density of 4000 cells/well in a 96-well plate for cell proliferation and treated with 1 nM of MTZ for 48 h in a growth medium (α-MEM containing 10% FBS). Following the MTZ treatment, the cells were incubated for 4 h with bromodeoxyuridine (BrdU) before termination. Cell proliferation was assessed at 450 nm using the Roche Diagnostics BrdU ELISA kit, in accordance with the manufacturer’s protocol, using a reference wavelength of 690 nm.

Data set [8] relates to Rat Calvarial Osteoblasts (RCOs). Nature of the data set: ALP assay (osteoblast differentiation) in rat calvarial osteoblasts. The class given is cell-based. On the procedure:
Sequential digestion was performed to isolate calvarial osteoblast cells from neonatal rat pups. Briefly, calvariae were harvested from ten to twelve 1–2-day old rat pups, cleaned, and subjected to five sequential enzymatic digestions (0.1% dispase and 0.1% collagenase I) of 10–15 min each, followed by culturing of the harvested cells in α-MEM supplemented with 10% FBS [22].
RCOs were seeded in 24-well plates (1 × 10^4 cells/well), and the cells were treated for 48 h in osteoblast differentiation media (α-MEM supplemented with 10 mM β-glycerophosphate and 50 μg/mL ascorbic acid) with the imidazole group of chemicals (10^−11 M–10^−6 M).
A total of 2 mg/mL of para-Nitrophenyl phosphate in diethanolamine buffer was used to measure the ALP activity at a 405 nm wavelength.

Data set [9] concerns mouse BMSCs (mBMSCs). Description: BrdU proliferation assay in mBMSCs. It is filed as cell-based. The note with it: 1 nM. As to the method:
as §2

pEC50: −log10 of the molar value.

For the compound `Cc1ncc([N+](=O)[O-])n1CCO` [Metronidazole], the “ALP activity compared to the vehicle group” value in [1] was “increased”. Besides, in data set [2], the β-catenin nuclear translocation result is reported as “induced”. Besides, the “Osteogenic differentiation and mineralized nodule formation” value in [3] is listed as “stimulated”. Further, in [4], the “First-order K1” value was 0.08 ± 0.00, the “First-order R^2” value was 0.84 ± 0.00, the “Higuchi R^2” value stood at 0.71 ± 0.00 and the “Higuchi kH” value was 16.34 ± 0.12. For the same compound, in [4], the “Hixson–Crowell R^2” value is 0.86 ± 0.01, the “Hixson–Crowell kHC” value amounted to 0.02 ± 0.00, the “Korsmeyer–Peppas R^2” value is 0.81 ± 0.01 and the “Korsmeyer–Peppas kKP” value amounted to 8.64 ± 0.11. Besides, in data set [4], the “Korsmeyer–Peppas n (release exponent)” value worked out at 0.78 ± 0.01, the “Zero-order K0” value is 4.77 ± 0.05 and the “Zero-order R^2” value came to 0.76 ± 0.01. Also, in [5], the Mineralization result is “promoted mineralization”. The “ALP activity compared to the vehicle group” value in [6] is recorded as “increased”. For the same compound, the “Proliferation (BrdU incorporation)” value in [7] is listed as “did not affect”. Moreover, in data set [8] (48 h), the “Activity in ALP Assay (Positive/Negative)” value is on record as “Positive” and the “Effect on ALP activity compared to the control (vehicle)” value is listed as “significantly increased”. This compound showed a pEC50 in [8] (Rattus norvegicus, Calvarial osteoblast, 48 h in osteoblast differentiation media) of 8.92. Further, the “Proliferation (BrdU incorporation)” value in data set [9] is “did not affect”.

What is called pEC50 is the negative decadic logarithm of the EC50, by convention in mol/L.

The values are drawn from publication PMC11274654 (Biomedicines, 2024).
